From US11667606B2, “Thyromimetics” (Autobahn Therapeutics, Inc., priority 2019, dated 2023)

What was measured:
TRα = molecular target: T1, TRα (Homo sapiens, UniProt P10827); experiment: Thyroid-hormone reporter-gene assay, TRα (Gal4 DBD hybrid, luciferase, HEK293); format: cell-based; conditions: reporter cells derived from HEK293, 24 hr incubation, luciferase readout
T1 construct: expressed in transfected cells; host or cells: HEK293
T1 sequence (P10827 128-410 isoform P10827-2 limits assumed): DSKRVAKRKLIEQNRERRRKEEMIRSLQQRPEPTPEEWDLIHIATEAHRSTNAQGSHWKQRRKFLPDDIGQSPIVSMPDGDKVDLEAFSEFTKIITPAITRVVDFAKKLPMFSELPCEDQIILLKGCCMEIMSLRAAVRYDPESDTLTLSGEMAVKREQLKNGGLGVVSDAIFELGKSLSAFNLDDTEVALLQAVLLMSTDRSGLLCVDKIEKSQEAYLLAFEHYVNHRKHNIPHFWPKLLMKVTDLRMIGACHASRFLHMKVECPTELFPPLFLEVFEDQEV
Method: (§1) Compounds were tested for thyroid-hormone receptor activity using TR reporter-gene assays. Reporter cells used in the assays express a TR-receptor hybrid (either TRα or TRβ) in which the native N-terminal DNA binding domain (DBD) has been replaced with that of the yeast Gal4 DBD. The reporter gene, firefly luciferase, is functionally linked to the Gal4 upstream activation sequence (UAS). Both cell lines were derived from human embryonic kidney (HEK293).
(§2) A suspension of reporter cells was prepared in cell recovery medium containing 10% charcoal-stripped FBS, and dispensed into assay plates. The plates were pre-incubated for 6 hours in a cell culture incubator (37° C./5% CO2/85% humidity).
(§3) These intermediate stocks were subsequently diluted directly into compound screening medium containing 10% charcoal-stripped FBS to generate “2×-concentration” treatment media (containing 0.2, 0.4 or 0.8% DMSO).
(§4) At the end of the pre-incubation period, culture media were discarded from the assay plates, and all wells received 100 μl of compound screening medium. 100 μl of each of the previously prepared “2×-concentration” treatment media were dispensed into duplicate assay wells, thereby achieving the desired final treatment concentrations. The final concentration of DMSO in all assay wells was 0.1, 0.2 or 0.4%. Assay plates were incubated for 24 hr in a cell culture incubator (37° C./5% CO2/85% humidity).
(§5) At the 24 h assay endpoint, treatment media were discarded and […] of luciferase detection reagent was added. Relative luminometer units (RLUs) were quantified from each assay well.

TRβ = molecular target: T2, TRβ (Homo sapiens, UniProt P10828); experiment: Thyroid-hormone reporter-gene assay, TRβ (Gal4 DBD hybrid, luciferase, HEK293); format: cell-based; conditions: for T3-SI, selectivity index (SI) calculated as EC50 (TRα)/EC50 (TRβ): TRβ over TRα selectivity from reporter-gene EC50 values; for EC50: reporter cells derived from HEK293, 24 hr incubation, luciferase readout
T2 construct: expressed in transfected cells; host or cells: HEK293
T2 sequence (P10828 217-461 limits assumed): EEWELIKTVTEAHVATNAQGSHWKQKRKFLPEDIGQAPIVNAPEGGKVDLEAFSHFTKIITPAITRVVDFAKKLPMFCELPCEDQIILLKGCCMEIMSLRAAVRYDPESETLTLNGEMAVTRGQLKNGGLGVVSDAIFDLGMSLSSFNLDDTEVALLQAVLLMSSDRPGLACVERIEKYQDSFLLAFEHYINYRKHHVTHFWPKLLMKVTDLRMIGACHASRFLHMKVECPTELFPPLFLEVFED
Method: as §1, §2, §3, §4, §5

EC50 (TRα) [nM]	T3-SI, selectivity index (SI) calculated as EC50 (TRα)/EC50 (TRβ) (TRβ)	EC50 (TRβ) [nM]	SMILES
> 1000	++ (3X < T3-SI ≤ 30X)	100 to 1000	C[C@@H](c1ccc(F)cc1)c1cc(Cc2c(Cl)cc(OCC(=O)O)cc2Cl)ccc1O (single isomer, unassigned) [Compound 74]
10 to 100	++ (3X < T3-SI ≤ 30X)	< 10	C[C@H](c1ccc(F)cc1)c1cc(Cc2c(Cl)cc(OCC(=O)O)cc2Cl)ccc1O (single isomer, unassigned) [Compound 75]
100 to 1000	++ (3X < T3-SI ≤ 30X)	100 to 1000	O=C(O)COc1cc(Cl)c(Cc2ccc(O)c(-c3cccc(C(F)(F)F)c3)c2)c(Cl)c1 [Compound 1, 2-(3,5-dichloro-4-((6-hydroxy-3′-(trifluoromethyl)-[1,1′-biphenyl]-3-yl)methyl)phenoxy)acetic Acid]
> 1000	+++ (T3-SI > 30X)	100 to 1000	CCc1cccc(-c2cc(Cc3c(Cl)cc(OCC(=O)O)cc3Cl)ccc2O)c1 [Compound 3, 2-(3,5-dichloro-4-((3′-ethyl-6-hydroxy-[1,1′-biphenyl]-3-yl)methyl)phenoxy)acetic Acid]
> 1000	+++ (T3-SI > 30X)	100 to 1000	O=C(O)COc1cc(Cl)c(Cc2ccc(O)c(-c3cccc(OC(F)F)c3)c2)c(Cl)c1 [Compound 5, 2-(3,5-dichloro-4-((3′-(difluoromethoxy)-6-hydroxy-[1,1′-biphenyl]-3-yl)methyl)phenoxy)acetic Acid]
–	–	> 1000	CCOC(=O)c1cccc(-c2cc(Cc3c(Cl)cc(OCC(=O)O)cc3Cl)ccc2O)c1 [Compound 6, 2-(3,5-dichloro-4-((3′-(ethoxycarbonyl)-6-hydroxy-[1,1′-biphenyl]-3-yl)methyl)phenoxy)acetic Acid]
> 1000	++ (3X < T3-SI ≤ 30X)	> 1000	COc1cccc(-c2cc(Cc3c(Cl)cc(OCC(=O)O)cc3Cl)ccc2O)c1 [Compound 7, 2-(3,5-dichloro-4-((6-hydroxy-3′-methoxy-[1,1′-biphenyl]-3-yl)methyl)phenoxy)acetic Acid]
–	–	> 1000	O=C(O)COc1cc(Cl)c(Cc2ccc(O)c(-c3cccc(CO)c3)c2)c(Cl)c1 [Compound 8, 2-(3,5-dichloro-4-((6-hydroxy-3′-(hydroxymethyl)-[1,1′-biphenyl]-3-yl)methyl)phenoxy)acetic Acid]
–	–	> 1000	CC(=O)Nc1cccc(-c2cc(Cc3c(Cl)cc(OCC(=O)O)cc3Cl)ccc2O)c1 [Compound 9, 2-(4-((3′-acetamido-6-hydroxy-[1,1′-biphenyl]-3-yl)methyl)-3,5-dichlorophenoxy)acetic Acid]
> 1000	–	> 1000	CC(=O)c1cccc(-c2cc(Cc3c(Cl)cc(OCC(=O)O)cc3Cl)ccc2O)c1 [Compound 11, 2-(4-((3′-acetyl-6-hydroxy-[1,1′-biphenyl]-3-yl)methyl)-3,5-dichlorophenoxy)acetic Acid]
> 1000	+++ (T3-SI > 30X)	100 to 1000	O=C(O)COc1cc(Cl)c(Cc2ccc(O)c(-c3cccc(OC(F)(F)F)c3)c2)c(Cl)c1 [Compound 12, 2-(3,5-dichloro-4-((6-hydroxy-3′-(trifluoromethoxy)-[1,1′-biphenyl]-3-yl)methyl)phenoxy)acetic Acid]
> 1000	+++ (T3-SI > 30X)	100 to 1000	CC(C)c1cccc(-c2cc(Cc3c(Cl)cc(OCC(=O)O)cc3Cl)ccc2O)c1 [Compound 13, 2-(3,5-dichloro-4-((6-hydroxy-3′-isopropyl-[1,1′-biphenyl]-3-yl)methyl)phenoxy)acetic Acid]
–	–	> 1000	CS(=O)(=O)c1cccc(-c2cc(Cc3c(Cl)cc(OCC(=O)O)cc3Cl)ccc2O)c1 [Compound 14, 2-(3,5-dichloro-4-((6-hydroxy-3′-(methylsulfonyl)-[1,1′-biphenyl]-3-yl)methyl)phenoxy)acetic Acid]
–	–	> 1000	COCc1cccc(-c2cc(Cc3c(Cl)cc(OCC(=O)O)cc3Cl)ccc2O)c1 [Compound 15, 2-(3,5-dichloro-4-((6-hydroxy-3′-(methoxymethyl)-[1,1′-biphenyl]-3-yl)methyl)phenoxy)acetic Acid]
> 1000	+++ (T3-SI > 30X)	100 to 1000	CCCc1cccc(-c2cc(Cc3c(Cl)cc(OCC(=O)O)cc3Cl)ccc2O)c1 [Compound 16, 2-(3,5-dichloro-4-((6-hydroxy-3′-propyl-[1,1′-biphenyl]-3-yl)methyl)phenoxy)acetic Acid]
> 1000	++ (3X < T3-SI ≤ 30X)	100 to 1000	Cc1cccc(-c2cc(Cc3c(Cl)cc(OCC(=O)O)cc3Cl)ccc2O)c1 [Compound 17, 2-(3,5-dichloro-4-((6-hydroxy-3′-methyl-[1,1′-biphenyl]-3-yl)methyl)phenoxy)acetic Acid]
100 to 1000	++ (3X < T3-SI ≤ 30X)	10 to 100	N#Cc1cccc(-c2cc(Cc3c(Cl)cc(OCC(=O)O)cc3Cl)ccc2O)c1 [Compound 19, 2-(3,5-dichloro-4-((3′-cyano-6-hydroxy-[1,1′-biphenyl]-3-yl)methyl)phenoxy)acetic Acid]
> 1000	++ (3X < T3-SI ≤ 30X)	100 to 1000	C=Cc1cccc(-c2cc(Cc3c(Cl)cc(OCC(=O)O)cc3Cl)ccc2O)c1 [Compound 21, 2-(3,5-dichloro-4-((6-hydroxy-3′-vinyl-[1,1′-biphenyl]-3-yl)methyl)phenoxy)acetic Acid]
–	–	> 1000	O=C(O)COc1cc(Cl)c(Cc2ccc(O)c(-c3cccc(C(F)(F)C(F)(F)F)c3)c2)c(Cl)c1 [Compound 28, 2-(3,5-dichloro-4-((6-hydroxy-3′-(perfluoroethyl)-[1,1′-biphenyl]-3-yl)methyl)phenoxy)acetic Acid]
–	–	> 1000	O=C(O)COc1cc(Cl)c(Cc2ccc(O)c(-c3ccc(C(F)(F)F)s3)c2)c(Cl)c1 [Compound 37]
–	–	> 1000	Cc1ccoc1-c1cc(Cc2c(Cl)cc(OCC(=O)O)cc2Cl)ccc1O [Compound 44, 2-(3,5-dichloro-4-(4-hydroxy-3-(3-methylfuran-2-yl)benzyl)phenoxy)acetic Acid]
–	–	> 1000	O=C(O)COc1cc(Cl)c(Cc2ccc(O)c(-c3ccc(F)c(C(F)(F)F)c3)c2)c(Cl)c1 [Compound 48, 2-(3,5-dichloro-4-((4′-fluoro-6-hydroxy-3′-(trifluoromethyl)-[1,1′-biphenyl]-3-yl)methyl)phenoxy)acetic acid]
–	–	100 to 1000	O=C(O)COc1cc(Cl)c(Cc2ccc(O)c(-c3cc(F)cc(C(F)(F)F)c3)c2)c(Cl)c1 [Compound 50, 2-(3,5-dichloro-4-((3′-fluoro-6-hydroxy-5′-(trifluoromethyl)-[1,1′-biphenyl]-3-yl)methyl)phenoxy)acetic Acid]
–	–	> 1000	O=C(O)COc1cc(Cl)c(Cc2ccc(O)c(-c3ccc(F)c(OC(F)F)c3)c2)c(Cl)c1 [Compound 55, 2-(3,5-dichloro-4-((3′-(difluoromethoxy)-4′-fluoro-6-hydroxy-[1,1′-biphenyl]-3-yl)methyl)phenoxy)acetic Acid]
–	–	> 1000	N#Cc1ccc(Cc2cc(Cc3c(Cl)cc(OCC(=O)O)cc3Cl)ccc2O)cc1 [Compound 80, 2-(3,5-dichloro-4-(3-(4-cyanobenzyl)-4-hydroxybenzyl)phenoxy)acetic Acid]
–	–	> 1000	Cc1ccc(Cc2cc(Cc3c(Cl)cc(OCC(=O)O)cc3Cl)ccc2O)cc1 [Compound 92, 2-(3,5-dichloro-4-(4-hydroxy-3-(4-methylbenzyl)benzyl)phenoxy)acetic Acid]
–	–	> 1000	O=C(O)COc1cc(Cl)c(Cc2ccc(O)c(Cc3cncnc3)c2)c(Cl)c1 [Compound 94, 2-(3,5-dichloro-4-(4-hydroxy-3-(pyrimidin-5-ylmethyl)benzyl)phenoxy) acetic Acid]
–	–	> 1000	O=C(O)COc1cc(Cl)c(Cc2ccc(O)c(Cc3ccc(CC(F)(F)F)cc3)c2)c(Cl)c1 [Compound 96, 2-(3,5-dichloro-4-(4-hydroxy-3-(4-(2,2,2-trifluoroethyl)benzyl)benzyl)phenoxy)acetic Acid]
